BigSolDB 2.1

O=C(/C=C/C=C/c1ccc2c(c1)OCO2)N1CCCCC1
solubility (mole fraction)
Details | 278.15 K | 283.15 K | 288.15 K | 293.15 K | 298.15 K | 303.15 K | 308.15 K | 313.15 K | 318.15 K
in acetone | 0.00485 | 0.00589 | 0.00706 | 0.0083 | 0.00973 | 0.0113 | 0.0129 | 0.0146 | 0.0166
in ethanol | 0.00413 | 0.00503 | 0.00607 | 0.00714 | 0.00827 | 0.00966 | 0.0111 | 0.0126 | 0.0143
in ethyl acetate | 0.00807 | 0.0104 | 0.0132 | 0.0161 | 0.0194 | 0.0232 | 0.0274 | 0.0321 | 0.0373
